The numbers were not newly measured in US11568956B2, “Methods for identifying inhibitors of amyloid protein aggregation” (Treventis Corporation, priority 2008, dated 2023), which cites them from elsewhere.

Structures can show the parent of a compound that is named as a salt.

The target in the first data set is Aβ (Homo sapiens, UniProt P05067). The note with it: read-out: Expt (IC50); cited from earlier work.
Chain of Aβ (P05067 672-711 limits assumed): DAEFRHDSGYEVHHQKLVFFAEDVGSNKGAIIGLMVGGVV
One may read the IC50 as the midpoint of a concentration-inhibition curve. As for `NCCc1ccc(O)c(O)c1` [dopamine chloride], the half-inhibitory concentration (IC50) was 28.6 µM.

With `CCCN1C(=CC=CC=Cc2sc3ccccc3[n+]2CCC)Sc2ccccc21` [3,3′-dipropyl thiodicarbocyanine iodine], the IC50 is 0.3 µM.

Still in this data set, the particulars now being: unit not in the table, μM; Masuda test set; read-out: Expt (IC50); cited from earlier work.
Consider `O=c1cc(-c2ccc(O)c(O)c2)oc2cc(O)cc(O)c12` [luteolin], for which the IC50 was 3 µM.

For `CCN(CC)CCCC(C)Nc1c2ccc(Cl)cc2nc2ccc(OC)cc12` (stereo not drawn) [quinacrine], the IC50 was 8.4 µM.

In the case of `Oc1cc(O)c2c(c1)O[C@H](c1cc(O)c(O)c(O)c1)[C@@H](O)C2` [gallocatechin], the IC50 is 7 µM.

As to `CCCCC[C@@H](O)[C@H]1C(=O)O[C@H](C)[C@@H](O)/C=C/C=C/C=C/C=C/C=C(\C)[C@@H](O)C[C@H](O)C[C@H](O)C[C@H](O)C[C@H](O)C[C@H](O)C[C@@H]1O` [filipin III], the IC50 was 14.6 µM.

As to `O=C(O)c1cc(/C=C/c2ccc(/C=C/c3ccc(O)c(C(=O)O)c3)c(Br)c2)ccc1O` [BSB], the half-inhibitory concentration (IC50) was 6.4 µM.

With `O=C(c1ccccc1)c1ccc(O)c(O)c1O` [2,3,4-trihydroxybenzophenone], the IC50 is 3.1 µM.

As to `Oc1cc(O)c2cc(O)c(-c3cc(O)c(O)c(O)c3)[o+]c2c1` [delphinidin], the half-inhibitory concentration (IC50) is 3 µM.

As to `CN(C)c1ccc(N=Nc2ccccc2)cc1` [methyl yellow], the IC50 is 1.5 µM.

For the compound `CN(C)CCCN1c2ccccc2Sc2ccccc21` [promazine hydrochloride], the IC50 is > 40 µM.

With `O=C(/C=C/c1ccc(O)c(O)c1)O[C@@H]1C[C@](O)(C(=O)O)C[C@@H](O)[C@H]1O` [chlorogenic acid], the half-maximal inhibitory concentration (IC50) is > 40 µM.

Turning to `Oc1cc(O)c2c(c1)O[C@H](c1ccc(O)c(O)c1)[C@H](O)[C@H]2c1c(O)cc(O)c2c1O[C@H](c1ccc(O)c(O)c1)[C@@H](O)C2` [procyanidin B1], the IC50 is 14 µM.

As for `O=C(c1ccc(O)cc1O)c1ccc(O)cc1O` [2,2′,4,4′-tetrahydroxybenzaphenone], the 50% inhibitory concentration (IC50) was > 40 µM.

With taurohydroxycholic acid, the half-inhibitory concentration (IC50) was > 40 µM.

As for `CN(C)c1ccc2nc3ccc(N)cc3[s+]c2c1` [azure A], the IC50 was 0.4 µM.

`O=c1c(O)c(-c2ccc(O)cc2)oc2cc(O)cc(O)c12` [kaempferol]: the IC50 is 8 µM.

Take `O=C(c1ccccc1O)c1ccccc1O` [2,2′-dihydroxybenzophenone]: the half-maximal inhibitory concentration (IC50) is > 40 µM.

Consider `C[C@H](CCC(=O)NCCS(=O)(=O)O)[C@H]1CC[C@H]2[C@@H]3[C@@H](O)C[C@@H]4C[C@H](O)CC[C@]4(C)[C@H]3CC[C@]12C` [tauroursodeoxycholic acid], for which the IC50 was > 40 µM.

As to ginkgolide C, the IC50 was > 40 µM.

Take `O=C(O[C@@H]1Cc2c(O)cc(O)cc2O[C@@H]1c1ccc(O)c(O)c1)c1cc(O)c(O)c(O)c1` [epicatechin 3-gallate]: the IC50 is 3 µM.

Consider `O=C1C[C@@H](c2ccc(O)cc2)Oc2cc(O)cc(O)c21` [naringenin], for which the half-maximal inhibitory concentration (IC50) was 25 µM.

Turning to `Cc1ccc2nc(-c3ccc(N(C)C)cc3)sc2c1` [2-[4-(dimethylamino)phenyl]-6-methylbenzothiazole], the IC50 is 2 µM.

Turning to `O=C1NC(=O)c2cc(Nc3ccccc3)c(Nc3ccccc3)cc21` [4,5-dianilinophthalimide], the IC50 was 2.9 µM.

As for `O=c1cc(-c2ccc(Oc3c(O)cc4oc(-c5ccc(O)cc5)cc(=O)c4c3O)cc2)oc2cc(O)cc(O)c12` [hinokiflavone], the half-maximal inhibitory concentration (IC50) is 5 µM.

Regarding `Nc1c(/N=N/c2ccc(-c3ccc(/N=N/c4cc(S(=O)(=O)O)c5ccccc5c4N)cc3)cc2)cc(S(=O)(=O)O)c2ccccc12` [Congo red], the 50% inhibitory concentration (IC50) is 0.9 µM.

For the compound `Cc1ccc2nc(-c3ccc(N)cc3)sc2c1` [2-(4-aminophenyl)-6-methylbenzothiazole], the 50% inhibitory concentration (IC50) was 2 µM.

With `Oc1cc(O)c2c(c1)O[C@H](c1ccc(O)c(O)c1)[C@H](O)[C@H]2c1c(O)cc(O)c2c1O[C@H](c1ccc(O)c(O)c1)[C@H](O)C2` [procyanidin B2], the IC50 is > 40 µM.

For the compound phthalocyanine tetrasulfonate, the IC50 is 3.2 µM.

Take `Oc1cc(O)c2c(c1)O[C@H](c1ccc(O)c(O)c1)[C@H](O)C2` [epicatechin]: the IC50 was > 40 µM.

Take `COc1cccc2c1C(=O)c1c(O)c3c(c(O)c1C2=O)C[C@@](O)(C(C)=O)C[C@@H]3O[C@H]1C[C@H](N)[C@H](O)[C@H](C)O1` [daunorubicin hydrochloride]: the IC50 is 1.4 µM.

Consider `CC1C(=O)OC2C(O)C34C5CC(C(C)(C)C)C36C(OC(=O)C6O)OC4(C(=O)O5)C12O` (stereo not drawn) [ginkgolide B], for which the IC50 was 11 µM.

Regarding `CC(=O)c1ccc2c(c1)N(CCCN(C)C)c1ccccc1S2` [acetopromazine maleate salt], the IC50 is > 40 µM.

In the case of `CCC(=O)c1ccc2c(c1)N(CCCN(C)C)c1ccccc1S2` [propionylpromazine hydrochloride], the IC50 is > 40 µM.

Consider `CO[C@H]1/C=C/O[C@@]2(C)Oc3c(C)c(O)c4c(O)c(c(/C=N/N5CCN(C)CC5)c(O)c4c3C2=O)NC(=O)/C(C)=C\C=C\[C@H](C)[C@H](O)[C@@H](C)[C@@H](O)[C@@H](C)[C@H](OC(C)=O)[C@@H]1C` [rifampicin], for which the IC50 is 4.9 µM.

`O=c1c(-c2ccc(O)cc2)coc2cc(O)ccc12` [daidzein]: the 50% inhibitory concentration (IC50) is > 40 µM.

`O=C(O[C@@H]1Cc2c(O)cc(O)cc2O[C@@H]1c1cc(O)c(O)c(O)c1)c1cc(O)c(O)c(O)c1` [epigallocatechin gallate]: the IC50 is 2 µM.

For the compound `Oc1cc(O)c2c(c1)O[C@H](c1cc(O)c(O)c(O)c1)[C@H](O)C2` [epigallocatechin], the IC50 is 7 µM.

Consider `c1cc2c(cc1[C@H]1OC[C@H]3[C@@H]1CO[C@@H]3c1ccc3c(c1)OCO3)OCO2` [sesamin], for which the IC50 was > 40 µM.

Regarding `O=c1c(O)c(-c2ccc(O)c(O)c2)oc2c(O)c(O)cc(O)c12` [gossypetin], the IC50 is 1.3 µM.

For the compound `O=c1c(O)c(-c2ccc(O)c(O)c2)oc2cc(O)cc(O)c12` [quercetin], the IC50 is 5 µM.

`Nc1ccc(N=Nc2ccc(-c3ccc(N=Nc4c(S(=O)(=O)O)cc5cc(S(=O)(=O)O)c(N=Nc6ccccc6)c(O)c5c4N)cc3)cc2)c(N)c1` [chlorazol black E]: the 50% inhibitory concentration (IC50) is 0.3 µM.

Regarding `O=C(O)c1cc(/C=C/c2ccc(/C=C/c3ccc(O)c(C(=O)O)c3)c(F)c2)ccc1O` [FSB], the half-inhibitory concentration (IC50) is 1.9 µM.

For `O=C(c1ccc(O)cc1O)c1ccc(O)c(O)c1O` [2,3,4,2′,4′-pentahydroxybenzophenone], the 50% inhibitory concentration (IC50) was 2.8 µM.

Consider `CN(C)CCCN1c2ccccc2Sc2ccc(Cl)cc21` [chlorpromazine hydrochloride], for which the half-inhibitory concentration (IC50) was > 40 µM.

In the case of `C[C@H](CCC(=O)NCCS(=O)(=O)O)[C@H]1CC[C@H]2[C@@H]3CC[C@@H]4C[C@H](OS(=O)(=O)O)CC[C@]4(C)[C@H]3CC[C@]12C` [taurolithocholic aicd 3-sulfate], the half-inhibitory concentration (IC50) was > 40 µM.

For `Cc1cc(O)c2c(=O)c3c(O)cc(O)c4c5c(O)cc(O)c6c(=O)c7c(O)cc(C)c8c1c2c(c34)c(c78)c65` [hypericin], the half-maximal inhibitory concentration (IC50) was 0.9 µM.

Regarding `Oc1cc(O)c2cc(O)c(-c3ccc(O)c(O)c3)[o+]c2c1` [cyanidin], the IC50 is 4 µM.
